We go through one compound from patent EP3797781A1, “USE OF EC-7072 AND SYNERGIC COMPOSITIONS THEREOF IN TREATMENT OF CHRONIC LYMPHOCYTIC LEUKEMIA” (priority 2019, dated 2021).

In test [1] the test system is MEC-1, GRANTA-519, Z-138, JVM-2, CA-46, Ramos, Raji and U266 cell lines. Description: Viability of B-cell malignancy cell lines by DiOC6(3)/PI staining. Type of test: cell-based. To be noted: 500 nM, 24 hours; n = 3; Figure 5C. How it is done:
(§1) Cell viability and apoptosis were evaluated by double-staining with the mitochondrial inner transmembrane potential (ΔΨm)-sensitive dye DiOC6(3) (3,3'-dihexyloxacarbocyanine iodide; Sigma-Aldrich) and the exclusion dye propidium iodide (PI; Immunostep), allowing identification of apoptotic [DiOC6(3)^low PI^-] and dead [PI^+] cells as per Proc. Natl. Acad. Sci. U.S.A. (2014) 111(8):3020-3025 and Methods Mol. Biol. (2016) 1419:1-16. Briefly, PBMCs were resuspended in culture medium containing 20 nM DiOC6(3) and incubated for 30 minutes at 37 °C. Then, PI (1 µg/mL) was added and cells were further incubated for 10 minutes at room temperature (RT). Cells were analyzed by flow cytometry considering DiOC6(3)^+PI^- cells as viable. In some experiments, apoptosis was evaluated by staining with Annexin V/PI. […]
Effectiveness of EC-7072 against different B-cell malignancies was assessed by; • (i) incubating primary fibroblasts from healthy donors (n = 4) and HK-2 cells from healthy human adult kidney (n = 3) following treatment with MTA (200 nM) or EC-7072 (200 nM) for 24 hours. […] Cell viability was assessed by DiOC6(3)/PI staining and normalized to control (DMSO) condition to obtain mean percentage of viable [DiOC6(3)^+] cells (Figure 5C).

Another test concerns leukemia cells. The experiment in a line: Apoptosis of leukemia cells by Annexin V/PI staining. Type of test: cell-based, human. The settings on record: 0 - 400 nM, 24 hours; PBMCs from patients with CLL (n = 6). As for the experimental part: as §1
The induction of caspase-dependent apoptosis on primary CLL cells by EC-7072 was assessed by: • (i) incubating PBMCs isolated from patients with CLL (n = 6) following treatment with increasing concentrations of EC-7072 (0 - 400 nM) for 24 hours. Apoptosis of leukemia cells was evaluated by cytofluorometric assessment of Annexin V/PI staining to obtain percentages of apoptotic [Annexin V^+ PI^-] and dead [PI^+] cells (Figure 3A); • (ii) incubating PBMCs and T cells isolated from patients with CLL (n = 3) following treatment with EC-7072 (200 nM) for 24 hours. […]

Test [2] relates to isolated T cells from patients with CLL. Description: qPCR analysis of BCL2 expression in isolated T cells. Type of test: cell-based, human. The settings on record: 200 nM, 6 hours; n = 3. How it is done: Isolated leukemia cells from patients with CLL were incubated with EC-7072 (200 nM) or DMSO for 6 hours. Total RNA was extracted using RNeasy Mini Kit (Qiagen). 2 µg total RNA were used for cDNA synthesis using High-Capacity cDNA Reverse Transcription Kit (Applied Biosystems). Quantitative RT-PCR was performed using SYBR Green PCR Master Mix (Applied Biosystems) in a 7300 Real-Time PCR System and each sample was analyzed in triplicate. Table 1. Primers used in qPCR
The dysregulation of BCL2 expression in primary CLL by EC-7072 was evaluated by: • (i) incubating isolated CLL cells (n = 6) from patients with CLL following treatment with EC-7072 (200 nM) for 6 hours and extracting total RNA. Relative expression of BLC2 was determined by qPCR to obtain the mean relative expression to the control (DMSO) condition (Figure 6F); • (ii) incubating isolated CLL cells (n = 6) following treatment with 200 nM EC-7072 for 12 and 18 hours. BCL2 levels were evaluated by intracellular flow cytometry (Figure 6G); • (iii) incubating isolated T cells (n = 3) from patients with CLL following treatment with EC-7072 (200 nM) for 6 hours and extracting total RNA. […] T-cell death and apoptosis were assessed by DiOC6(3)/PI staining to obtain percentages of viable [DiOC6(3)^+] cells and the mean percentages of apoptotic [DiOC6(3)^low PI^-] and dead [PI^+] cells.

Take `CO[C@@H]([C@@H]1Cc2cc3cc(O[C@H]4C[C@@H](O[C@H]5C[C@@H](O)[C@H](O)[C@@H](C)O5)[C@H](O)[C@@H](C)O4)c(C)c(O)c3c(O)c2C(=O)[C@H]1O[C@H]1C[C@@H](O[C@H]2C[C@@H](O[C@H]3C[C@](C)(O)[C@H](O)[C@@H](C)O3)[C@@H](O)[C@@H](C)O2)[C@H](O)[C@@H](C)O1)[C@@H](O)C(C)=O` [EC-7072, mithramycin SK]: the “surviving cell fraction of tumor cell lines derived from B-cell hematologic malignancies” value in test [1] is “significantly reduced the surviving cell fraction”. For the same compound, the “apoptosis of leukemia cells (Annexin V/PI)” value in the test with leukemia cells is “significantly induces CLL cell apoptosis”. The “BCL2 expression in T cells” value in test [2] was “not modulated”.
